Assay results from patent publication US20240368209A1, “GEMCITABINE ANTICANCER DERIVATIVE AND ANTICANCER PHARMACEUTICAL USE” (ASCENTAWITS PHARMACEUTICALS, LTD., priority 2021, published 2024).
Several values for one entry are separate records, joined by “and”; a condition that tells them apart may be missing. Identical values can stand only once. Like-named read-outs stand apart in the source and are kept apart here.

What was measured:
[1] = system: H460 non-small cell lung cancer human tumor cell line; assay: In vitro human tumor cell line cytotoxicity (proliferation) assay on H460, CTG, with or without AST-3021; assay type: cell-based; settings: for IC50: Homo sapiens
Procedure: In vitro human tumor cell line cytotoxicity assay was used.
In vitro proliferation data on the H460 non-small cell lung cancer human tumor cell line (cell line which highly expresses AKR1C3) is reported below in the compound table.
IC50 values were obtained with the following steps:
Specifically, exponentially growing cells were seeded at a density of 2×10^3 cells/100 μL/well in a 96-well plate and incubated at 37° C. in 5% CO2, 95% air and 100% relative humidity for 24 hours. The test compound was administered alone: 24 hours after cell plating, the compound acted alone, 99 μL of growth medium per well was added, and 1 μL of the compound prepared at 200× was added, and the plate was shaken gently to ensure even mixing, then placed into an incubator of 37° C., 5% CO2. After further cultivation for 72 hours, the number of live cells was detected using CTG. The CTG detection method was as follows: the cell plate to be tested was placed at room temperature to equilibrate for 30 minutes, and 100 μL of medium per well was discarded. 25 μL of CTG reagent (CellTiter-Glo® kit) per well was added, and the plate was placed in a high-speed shaker to oscillate for 2 minutes, and placed at room temperature in the dark for 30 minutes. The chemiluminescence signal value was read using a multimode microplate reader, with a read time of 1000 ms.
Similarly, in order to further verify that the compounds were activated by human AKR1C3 (aldosterone reductase family 1 member C3), the effect of some of the compounds on the proliferation of H460 cancer cells was tested with pretreatment with a specific AKR1C3 enzyme inhibitor AST-3021 (3 μM). The detailed experimental procedure was as follows: 24 hours after cell plating, 98 μL of growth medium per well was added, and 1 μL of 200×compound AST-3021 was added to each well, and the plate was shaken gently to ensure even mixing, and then placed into an incubator; after 2 hours, 1 μL of the test compound prepared at 200× was added, and the plate was shaken gently to ensure even mixing and then laced into an incubator of 37° C., 5% CO2. The inhibitor used was compound 36, i.e.
in Flanagan et al., Bioorganic and Medicinal Chemistry (2014), page 962-977, and is referred to as AST-3021 in this invention. The values measured in this case are values corresponding to +AST-3021 IC50 (nM) in Table 1.
The value corresponding to +AST-3021 IC50 (nM) divided by the value corresponding to IC50 (nM) is the specific activation ratio. The relative magnitude of the specific activation ratio can be used to evaluate whether this compound is a cytotoxic compound activated by human AKR1C3 (aldosterone reductase family 1 member C3): when the specific activation ratio is less than 1, it is considered that the compound is not activated by human AKR1C3 (aldosterone reductase family 1 member C3); when the specific activation ratio is greater than 1, it is considered that the compound is activated by human AKR1C3 (aldosterone reductase family 1 member C3), and the higher the value, the higher the activation degree and the selectivity of AKR1C3.

H460 cancer cells = assay: Inhibition of H460 cancer cells in the presence or absence of AKR1C3 inhibitor AST-3021 (section 2.1); assay type: cell-based, human; settings: AST-3021 3 μM, read-out: IC50 (nmol/L) AST-3021 added
Procedure: The experimental scheme was as follows: • 1) H460 cell suspension was added to a 96-well plate with 100 μL per well at a cell density of 2000/well. • 2) Cells were incubated in an incubator of 37° C., 5% CO2 overnight. • 3) Compound treatment
Combined administration: 24 hours after cell plating, 98 μL of growth medium per well was added. 1 μL of AST-3021 was added to each well (final concentration 3 μM), and the plate was shaken gently to ensure even mixing, and then placed into an incubator; after 2 hours, 1 μL of the test compound at different concentrations was added, and the plate was shaken gently to ensure even mixing, and then placed into an incubator of 37° C., 5% CO2.
Administration of the drug alone: 24 hours after cell plating, 99 μL of growth medium per well was added.
In order to further verify that the compound was activated specifically by human AKR1C3 (aldosterone reductase family 1 member C3), the compound was added following the pretreatment of cells with the specific AKR1C3 enzyme inhibitor AST-3021 (3 μM), and the effect of the presence of AST-3021 on the proliferation of H460 cancer cells was tested
IC50 data of inhibitory effect of the compounds gemcitabine and H11 on H460 cancer cells in the presence or absence of the AKR1C3 inhibitor AST-3021 is shown in Table 2 and Table 3.

[2] = Metabolic stability in dog liver microsomes; assay type: in vitro ADME
Procedure: Main solutions were prepared according to Table 9 below:
(II) Two Separate Experiments were Performed • a) With cofactor (NADPH): 25 μL of 10 mM NADPH was added to the culture broth. The final concentration of liver microsomes was 0.5 mg/mL, and the final concentration of NADPH was 1 mM. • b) Without cofactor (NADPH): 25 μL of 100 mM phosphate buffer was added. The final concentration of liver microsomes was 0.5 mg/mL. The mixture was preheated at 37° C. for 10 minutes. (III) 25 μL of […] control compound or test compound solution was added to start the reaction. […] The final concentrations of the test compound and control compound were both 1 μM. The culture broth was cultured in water at 37° C. (IV) Aliquots of 30 μL were collected from the reaction solution at 0.5, 5, 15, 30, and 60 minutes, respectively. 5 volumes of cold acetonitrile and IS (internal standard, containing 100 nM of alprazolam, 200 nM of caffeine, and 100 nM of tolylbutanamide) were added to stop the reaction. […] 100 μL of supernatant was taken and mixed with 100 μL of ultrapure water, equally divided and analyzed with LC-MS/MS.
All calculations were conducted using Microsoft Excel. The peak area was determined from the extracted ion chromatogram.
[formula] [formula] [formula] • wherein, QH is the hepatic blood flow (mL/min/kg) in Table 10, and fub is the fraction of drug unbound in plasma, and assumed as 1.

## CC(C)NP(=O)(OCc1ccc([N+](=O)[O-])c(Oc2ccc(-c3ccc(F)cc3)c(F)c2)c1)OCC1OC(C2N=CC(N)=NC2=O)C(F)(F)C1O (stereo not drawn) [Compound H11]
[1]
  specific activation ratio (+AST-3021 IC50/IC50): 92.8
[1]; NCI-H460, compound alone, 72 hours, read-out: IC50
  IC50: 15.9 nM
[1]; NCI-H460, pretreatment with AKR1C3 inhibitor AST-3021 (3 μM), read-out: +AST-3021 IC50
  IC50: 1480 nM
H460 cancer cells; H460
  IC50: 1470 nmol/L and 2350 nmol/L
H460 cancer cells; Homo sapiens, NCI-H460, H460
  IC50: 2940 nmol/L
[2]
  Hepatic Extraction Ratio (ER): 0.68
  Predicted Hepatic CLH: 21.21 mL/min/kg
  clearance and stability in liver microsomes (in words): medium clearances and certain stability
[2]; NADPH added, 0.5 minutes, 1 μM
  Remaining percentage (%): 100.00%
[2]; NADPH added, 5 minutes
  Remaining percentage (%): 90.20%
[2]; NADPH added, 15 minutes
  Remaining percentage (%): 71.99%
[2]; NADPH added, 30 minutes
  Remaining percentage (%): 52.53%
[2]; NADPH added, 60 minutes
  Remaining percentage (%): 32.12%
[2]; NADPH not added, 0.5 minutes
  Remaining percentage (%): 100.00%
[2]; NADPH not added, 60 minutes
  Remaining percentage (%): 92.14%
[2]; dog, read-out: In vitro half-life t1/2
  half-life at 1 μM: 36.3 min
[2]; dog, read-out: In vitro intrinsic clearance CLint
  microsomal CLint at 1 μM: 38.2 µL/min/mg
[2]; read-out: Scale-up CLint
  CLint scaled at 1 μM: 67.2 mL/min/kg
